The record followed here is the supplement of paper PMC10307832.

What all share (assay): relative viability (nuclei count vs DMSO), 5 days (fraction); higher = more cells survive
Compound in the test “Cediranib + Foretinib”: COc1cc2c(Oc3ccc4[nH]c(C)cc4c3F)ncnc2cc1OCCCN1CCCC1 [Cediranib] + COc1cc2c(Oc3ccc(NC(=O)C4(C(=O)Nc5ccc(F)cc5)CC4)cc3F)ccnc2cc1OCCCN1CCOCC1 [Foretinib] (partner 0.25 µM)
In short, it runs like this:
(§1)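 Cells from lung cancer lines were seeded into 1536-well plates and, one day later, dosed by pin tool. Treatments were either a single drug or a fixed dose of an anchor drug with five library-drug doses (not always all listed) in √10 steps. After 5 days, nuclei were stained in a one-step fixation (final 0.05% Triton X-100, 1% formaldehyde, 1 ug/ml Hoechst) and counted on 4× images, and relative viability is the treated-to-vehicle nuclei ratio, as the median of duplicate plates.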

Compound in test [1]: O=C(C[C@H]1NCCC[C@@H]1O)Cn1cnc2cc(Br)c(Cl)cc2c1=O (racemic) [Halofuginone] + CC(=O)Nc1cccc(-n2c(=O)n(C3CC3)c(=O)c3c(Nc4ccc(I)cc4F)n(C)c(=O)c(C)c32)c1 [Trametinib] (partner 0.02 µM)
In short, it runs like this:
as §1

Compound in test [2]: O=C(C[C@H]1NCCC[C@@H]1O)Cn1cnc2cc(Br)c(Cl)cc2c1=O (racemic) [Halofuginone] + CCNC(=O)c1noc(-c2cc(C(C)C)c(O)cc2O)c1-c1ccc(CN2CCOCC2)cc1 [Luminespib] (partner 0.01 µM)
In short, it runs like this: as §1

Compound in the test “Halofuginone + Lapatinib”: O=C(C[C@H]1NCCC[C@@H]1O)Cn1cnc2cc(Br)c(Cl)cc2c1=O (racemic) [Halofuginone] + CS(=O)(=O)CCNCc1ccc(-c2ccc3ncnc(Nc4ccc(OCc5cccc(F)c5)c(Cl)c4)c3c2)o1 [Lapatinib] (partner 2 µM)
The essentials:
as §1

On to NCI-H23, for which the relative viability with Cediranib + Foretinib (first compound 0.04 µM) is 1.07; in the test with Cediranib + Foretinib (first compound 0.4 µM), 0.939; with Cediranib + Foretinib (first compound 1.265 µM), 0.863; with Cediranib + Foretinib (first compound 4 µM) it was 1.03; in test [1] (first compound 0.001 µM) it was 0.413; in test [1] (first compound 0.003162 µM), 0.407. Further, the relative viability stood at 0.392 in test [1] (first compound 0.01 µM); 0.402 in test [1] (first compound 0.03162 µM); 0.217 in test [1] (first compound 0.1 µM); 0.213 in test [2] (first compound 0.001 µM); 0.184 in test [2] (first compound 0.003162 µM); 0.203 in test [2] (first compound 0.01 µM). Further, the relative viability stood at 0.203 in test [2] (first compound 0.03162 µM); 0.231 in test [2] (first compound 0.1 µM); 1.28 with Halofuginone + Lapatinib (first compound 0.001 µM); 1.03 with Halofuginone + Lapatinib (first compound 0.003162 µM); 1.2 with Halofuginone + Lapatinib (first compound 0.01 µM); 0.713 with Halofuginone + Lapatinib (first compound 0.03162 µM). Further, the relative viability with Halofuginone + Lapatinib (first compound 0.1 µM) amounted to 0.707.
On to NCI-H322M, for which the relative viability with Cediranib + Foretinib (first compound 0.04 µM) came to 1.15; in the test with Cediranib + Foretinib (first compound 0.1265 µM), 1.04; in the test with Cediranib + Foretinib (first compound 0.4 µM), 0.946; with Cediranib + Foretinib (first compound 1.265 µM), 0.912; with Cediranib + Foretinib (first compound 4 µM), 0.922; in test [1] (first compound 0.001 µM) it was 0.512. For the same cell line, the relative viability in test [1] (first compound 0.003162 µM) worked out at 0.441; in test [1] (first compound 0.01 µM), 0.513; in test [1] (first compound 0.03162 µM), 0.479; in test [1] (first compound 0.1 µM), 0.423; in test [2] (first compound 0.001 µM), 0.944; in test [2] (first compound 0.003162 µM), 0.855. The relative viability in test [2] (first compound 0.01 µM) came out at 0.915; in test [2] (first compound 0.03162 µM) it was 0.719; in test [2] (first compound 0.1 µM), 0.318; in the test with Halofuginone + Lapatinib (first compound 0.001 µM), 0.47; in the test with Halofuginone + Lapatinib (first compound 0.003162 µM), 0.583; with Halofuginone + Lapatinib (first compound 0.01 µM) it was 0.585. Also, the relative viability turned out to be 0.607 with Halofuginone + Lapatinib (first compound 0.03162 µM) and 0.493 with Halofuginone + Lapatinib (first compound 0.1 µM).
For NCI-H358, the relative viability with Cediranib + Foretinib (first compound 0.04 µM) worked out at 0.712; with Cediranib + Foretinib (first compound 0.1265 µM), 0.809; in the test with Cediranib + Foretinib (first compound 0.4 µM) it was 0.677; with Cediranib + Foretinib (first compound 1.265 µM), 0.616; in the test with Cediranib + Foretinib (first compound 4 µM), 0.763; in test [1] (first compound 0.001 µM), 0.158. The relative viability is 0.138 in test [1] (first compound 0.003162 µM); 0.12 in test [1] (first compound 0.01 µM); 0.119 in test [1] (first compound 0.03162 µM); 0.0998 in test [1] (first compound 0.1 µM); 0.306 in test [2] (first compound 0.001 µM); 0.455 in test [2] (first compound 0.003162 µM). Further, the relative viability in test [2] (first compound 0.01 µM) was 0.229; in test [2] (first compound 0.03162 µM), 0.205; in test [2] (first compound 0.1 µM), 0.154; in the test with Halofuginone + Lapatinib (first compound 0.001 µM), 0.56; in the test with Halofuginone + Lapatinib (first compound 0.003162 µM), 0.432; in the test with Halofuginone + Lapatinib (first compound 0.01 µM), 0.376. Further, the results for the relative viability with Halofuginone + Lapatinib (first compound 0.03162 µM) and with Halofuginone + Lapatinib (first compound 0.1 µM) were 0.282 and 0.232, respectively.
With NCI-H460, the relative viability with Cediranib + Foretinib (first compound 0.04 µM) was 1.01; in the test with Cediranib + Foretinib (first compound 0.1265 µM) it was 1.02; with Cediranib + Foretinib (first compound 0.4 µM), 1.02; with Cediranib + Foretinib (first compound 1.265 µM), 0.944; in the test with Cediranib + Foretinib (first compound 4 µM) it was 1.04; in test [1] (first compound 0.001 µM), 0.115. Besides, the relative viability was 0.197 in test [1] (first compound 0.003162 µM); 0.172 in test [1] (first compound 0.01 µM); 0.0823 in test [1] (first compound 0.03162 µM); 0.022 in test [1] (first compound 0.1 µM); 0.0339 in test [2] (first compound 0.001 µM); 0.0272 in test [2] (first compound 0.003162 µM). Also, the relative viability in test [2] (first compound 0.01 µM) turned out to be 0.0348; in test [2] (first compound 0.03162 µM) it was 0.0271; in test [2] (first compound 0.1 µM) it was 0.0193; with Halofuginone + Lapatinib (first compound 0.001 µM), 0.948; with Halofuginone + Lapatinib (first compound 0.003162 µM), 1.27; in the test with Halofuginone + Lapatinib (first compound 0.01 µM), 0.967. Moreover, the relative viability with Halofuginone + Lapatinib (first compound 0.03162 µM) came out at 0.573; in the test with Halofuginone + Lapatinib (first compound 0.1 µM), 0.11.
For NCI-H520, the relative viability in the test with Cediranib + Foretinib (first compound 0.04 µM) came to 0.859; with Cediranib + Foretinib (first compound 0.1265 µM), 0.656; with Cediranib + Foretinib (first compound 0.4 µM), 0.626; with Cediranib + Foretinib (first compound 1.265 µM) it was 0.731; with Cediranib + Foretinib (first compound 4 µM), 0.576; in test [1] (first compound 0.001 µM), 0.572. The relative viability in test [1] (first compound 0.003162 µM) is 0.734; in test [1] (first compound 0.01 µM), 0.695; in test [1] (first compound 0.03162 µM), 0.45; in test [1] (first compound 0.1 µM), 0.287; in test [2] (first compound 0.001 µM), 0.232; in test [2] (first compound 0.003162 µM) it was 0.241. Moreover, the relative viability in test [2] (first compound 0.01 µM) was 0.185; in test [2] (first compound 0.03162 µM) it was 0.206; in test [2] (first compound 0.1 µM), 0.236; with Halofuginone + Lapatinib (first compound 0.001 µM) it was 0.98; in the test with Halofuginone + Lapatinib (first compound 0.003162 µM) it was 0.811; with Halofuginone + Lapatinib (first compound 0.01 µM), 0.96. Besides, the results for the relative viability in the test with Halofuginone + Lapatinib (first compound 0.03162 µM) and with Halofuginone + Lapatinib (first compound 0.1 µM) were 0.704 and 0.401, respectively.
As to NCI-H596, the relative viability with Cediranib + Foretinib (first compound 0.04 µM) came to 1.04; in the test with Cediranib + Foretinib (first compound 0.1265 µM) it was 0.833; in the test with Cediranib + Foretinib (first compound 0.4 µM), 0.974; with Cediranib + Foretinib (first compound 4 µM) it was 0.926; in test [1] (first compound 0.001 µM), 0.889; in test [1] (first compound 0.003162 µM), 0.732. For the same cell line, the relative viability in test [1] (first compound 0.01 µM) turned out to be 0.811; in test [1] (first compound 0.03162 µM), 0.898; in test [1] (first compound 0.1 µM), 0.542; in test [2] (first compound 0.001 µM), 1.02; in test [2] (first compound 0.003162 µM), 1.23; in test [2] (first compound 0.01 µM) it was 1.06. The relative viability in test [2] (first compound 0.03162 µM) stood at 0.941; in test [2] (first compound 0.1 µM), 0.324; in the test with Halofuginone + Lapatinib (first compound 0.001 µM) it was 1.06; with Halofuginone + Lapatinib (first compound 0.003162 µM), 1.18; with Halofuginone + Lapatinib (first compound 0.01 µM), 1.02; with Halofuginone + Lapatinib (first compound 0.03162 µM), 1.07. Further, in the test with Halofuginone + Lapatinib (first compound 0.1 µM), the relative viability came out at 0.661.
As to NCI-H647, the relative viability was found to be 1.14 with Cediranib + Foretinib (first compound 0.04 µM); 1.25 in the test with Cediranib + Foretinib (first compound 0.1265 µM); 1.03 with Cediranib + Foretinib (first compound 0.4 µM); 1.27 with Cediranib + Foretinib (first compound 1.265 µM); 1.3 in the test with Cediranib + Foretinib (first compound 4 µM); 0.499 in test [1] (first compound 0.001 µM). For the same cell line, the relative viability was determined as 0.574 in test [1] (first compound 0.003162 µM); 0.421 in test [1] (first compound 0.01 µM); 0.336 in test [1] (first compound 0.03162 µM); 0.292 in test [1] (first compound 0.1 µM); 0.141 in test [2] (first compound 0.001 µM); 0.153 in test [2] (first compound 0.003162 µM). The relative viability is 0.147 in test [2] (first compound 0.01 µM); 0.137 in test [2] (first compound 0.03162 µM); 0.129 in test [2] (first compound 0.1 µM); 1.14 in the test with Halofuginone + Lapatinib (first compound 0.001 µM); 1.07 with Halofuginone + Lapatinib (first compound 0.003162 µM); 1.04 in the test with Halofuginone + Lapatinib (first compound 0.01 µM). Further, the relative viability with Halofuginone + Lapatinib (first compound 0.03162 µM) is 1.02; in the test with Halofuginone + Lapatinib (first compound 0.1 µM), 0.533.
